The values that follow come from patent US20230219951A1, “PYRIDINE-PYRIMIDINE DERIVATIVE, PREPARATION METHOD THEREFOR AND PHARMACEUTICAL USE THEREOF” (Jiangsu Hengrui Pharmaceuticals Co., Ltd., priority 2020, published 2023).

Data set [1] is described as follows: Pharmacokinetic evaluation in dogs. Type of data set: in vivo. The following applies: both sexes, dog, plasma, po, beagle dogs, intragastric administration, 2 mg/kg. As to the method:
The drug concentration in the plasma of the test animals (dogs) at different time points after intragastric administration (i.g.) of compound 18-p1 was determined by using an LC/MS/MS method. The pharmacokinetic behavior in dogs of the compound of the present disclosure was studied and its pharmacokinetic profile was evaluated.
Four beagle dogs, half male and half female, fasted overnight, supplied by animal reserve bank (999M-004). All animals were beagle dogs qualified for physical examination and healthy without abnormalities.
An amount of compound 18-p1 was weighed and dissolved in 5% by volume of DMSO, 20% by volume of PG, and 20% by volume of PEG400, and then prepared into a 0.4 mg/mL clear solution with 55% normal saline.
The administration was performed at a dose of 2.0 mg/kg and a volume of 5.0 mL/kg.
The compound 18-p1 was administered intragastrically to dogs, and 1.0 mL of blood was collected from jugular vein or forelimb vein before administration and 0.25 h, 0.5 h, 1.0 h, 2.0 h, 4.0 h, 6.0 h, 8.0 h, 12.0 h and 24.0 h after administration. The blood was placed in an EDTA-K2 anticoagulation tube and centrifuged at 10,000 rpm for 5 min (4° C.), and plasma was separated out within 1 h and then stored at −80° C. for testing. The process from blood sampling to centrifugation was performed under an ice bath. Food intake was resumed 3 h after administration.
The content of the test compounds at different concentrations in plasma of dogs after administration was determined: 25 μL of plasma of dogs at each time point after administration was taken, and 200 μL of acetonitrile (containing 50 μL of internal standard solution camptothecin, 100 ng/mL) was added; the mixture was vortexed for 5 min, and centrifuged for 10 min (4000 r/min). 0.3 μL of supernatant was taken from the plasma sample for LC/MS/MS analysis.

For data set [2], the system named is ERK phosphorylation of H358 cells. Briefly: Inhibition of ERK phosphorylation of H358 cells (HTRF pERK/total ERK). It counts as cell-based. To be noted: Homo sapiens, NCI-H358, 1 h incubation, pERK/total ERK ratio. Put shortly: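 H358 (KRAS G12C) cells were treated 1 h at 37°C with compound, 9 points by 5-fold dilution from 10 μM (final), 0.1% DMSO blank. Lysates were probed by HTRF with phospho-ERK1/2 and total-ERK1/2 antibodies overnight at room temperature, and IC50 was fitted from the pERK/total ERK ratio.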
(Time-resolved FRET reads energy transfer from a long-lived donor to a nearby acceptor.)

The term half-life denotes how long it takes for the measured level to halve. A word on the IC50: it is the point on the concentration scale where inhibition reaches its midpoint.

As to `Cc1nc(N[C@H](C)c2cccc(C(F)F)c2F)c2cc([C@]3(O)CC[C@@H](O)CC3)c(=O)[nH]c2n1` [Example 18-p1, 4-(((R)-1-(3-(difluoromethyl)-2-fluorophenyl)ethyl)amino)-6-((1s,4S)-1,4-dihydroxycyclohexyl)-2-methylpyrido[2,3-d]pyrimidin-7(8H)-one], in data set [1] (read-out: Apparent distribution volume Vz/F), the Vd/F was determined as 2.63 L/kg. The AUC(0-t) in data set [1] (read-out: Area under curve AUC0-t) came to 4600 ng·h/mL. The CL/F in data set [1] (read-out: Clearance CLz/F) is 7.64 mL/min/kg. Further, the half-life in data set [1] (read-out: Half-life T½ (converted)) was 3.91 h. In data set [1] (read-out: Plasma concentration Cmax), the Cmax is 710 ng/mL. For the same compound, the IC50 in data set [2] was 51 nM.
